The subject of experiment [1] is HCT-116 colon carcinoma cells. The experiment in a line: MTT assay, HCT-116 colon carcinoma cells. It is filed as cell-based. The following applies: Homo sapiens, HCT-116, read-out: IC50 HCT-116 (72 h). The method, then:
(§1) HT-29 (ACC-299), HCT-116 (ACC-581) and DLD-1 (ACC-278) colon carcinoma, MCF-7 (ACC-115) breast carcinoma, KB-V1 (ACC-149), 518A2 (Department of Radiotherapy and Radiobiology, University Hospital Vienna) melanoma and Ea.Hy926 (ATCC no. CRL-2922) HUVEC derived endothelial hybrid cells line were grown in Dulbecco’s Modified Eagle Medium (DMEM; Biochrom), high glucose supplemented with 10% (v/v) fetal bovine serum (FBS; Biochrom.) and 1% (v/v) Antibiotic-Antimycotic solution (anti-anti; Thermo Scientific). HDFa human dermal fibroblasts (ATCC: PCS-201-012™) were grown in DMEM supplemented with 10% FBS, 1% anti-anti and 2 mM glutamine. The cells were incubated at 37 °C, 5% CO2, 95% humidified atmosphere. By repeated addition of topotecan or vinblastine at the maximum tolerated dose to the cell medium of MCF-7 and KB-V1 cells, the cells were rendered multidrug-resistant, indicated as MCF-7^Topo and KB-V1^Vbl, respectively. They were serially passaged following trypsinization by using 0.05% trypsin/0.02% EDTA (Biochrom). Mycoplasma contamination was routinely monitored, and only mycoplasma–free cultures were used.
(§2) MTT [3-(4,5-dimethylthiazol-2-yl)-2,5-diphenyltetrazolium bromide] (ABCR) was used to determine the cytotoxicity of test compounds as previously described. Briefly, HDFa human dermal fibroblasts and Ea.Hy926 endothelial hybrid cells (both 1 × 10^5 cells/mL, 100 µL/well), 518A2 melanoma, KB-V1^Vbl cervix carcinoma, MCF-7^Topo breast carcinoma, HT-29, DLD-1 and HCT-116 colon carcinoma (all 5 × 10^4 cells/mL, 100 µL/well) were grown in 96-well culture plates for 24 h. Then, various concentrations of the test compounds were added and the cells were incubated for 24-72 h at 37 °C. After adding 12.5 µL of a 0.5% MTT solution in PBS (final concentration 0.05%) to cell medium, microplates were incubated for 2 h and subsequently swiftly turned to discard the medium. The precipitate of formazan crystals was then dissolved in a 10% solution of SDS in DMSO containing 0.6% acetic acid. To ensure complete dissolution of formazan, microplates were incubated for at least 4 h at 37 °C. Finally, the absorbance at λ = 570 nm (formazan) and 630 nm (background) was measured using a microplate reader (Tecan F200). All experiments were carried out in quadruplicate and the percentage of viable cells was calculated as the mean ± SD with controls set to 100%. Selected graphs of MTT assays can be found in the Supporting Information (Figure S8).
(Formazan colour is commonly taken as a measure of viable cells.)

Experiment [2] has as its target T1, recombinant human HDAC1 (Homo sapiens, UniProt Q13547).
T1 construct: purchased Cayman Chemicals
The experiment in a line: HDAC1 inhibitor screening assay (fluorometric). The format is biochemical. The following applies: recombinant human HDAC1, mean ± SD of two experiments; read-out: HDAC inhibition IC50, HDAC1. Here is the method:
The HDAC inhibitory potential of the novel compounds was determined by utilizing the deacetylase activity of recombinant human HDAC1 (HDAC1 Inhibitor Screening Assay Kit; Cayman Chemicals) or HDAC6 (HDAC6 Inhibitor Screening Kit (Fluorometric); Biovision) towards the corresponding synthetic acetylated-peptide substrates resulting in the release of a fluorescent product. The assays were performed according to manufacturer’s description of the in commercially available assay kits. […] The IC50 values were derived from dose-response curves and are expressed as the means ± SD of two independent experiments.

For experiment [3], the system named is microtubule cytoskeleton in 518A2 melanoma cells. The experiment in a line: Immunofluorescence staining of microtubule cytoskeleton, 518A2 cells. The format is cell-based, human. The following applies: 24 h. The method, then:
518A2 melanoma cells (5 × 10^4 cells/mL, 500 µL/well) or Ea.Hy926 endothelial hybrid cells (7.5 × 10^4 cells/mL, 500 µL/well) were seeded in 24-well plates on small glass coverslips and grown for 24 h. Then, the cells were exposed to the test compounds for 24 h. After washing the cells once with PBS, they were fixed in 3.7% formaldehyde in PBS (20 min, rt), and permeabilized and blocked in 1% BSA and 0.1% triton X-100 in PBS (30 min, rt). Then, the cells were incubated with monoclonal mouse anti-alpha-tubulin antibody (1 h, 37 °C). […] Then, the cells were washed for three times with PBS and once with water. The glass coverslips were mounted in 4-88 based mounting medium supplemented with 1 µg/mL DAPI for counterstaining the nuclei and 2.5% DABCO. Alterations of the microtubule were documented by a Zeiss Imager A1 AX10 fluorescence microscope (400× magnification).

The subject of experiment [4] is DLD-1 colon carcinoma cells. As to the kind of experiment: MTT assay, DLD-1 colon carcinoma cells. It is filed as cell-based. The following applies: Homo sapiens, DLD-1, read-out: IC50 DLD-1 (72 h). Here is the method: as §1, §2
For experiment [5], the target named is T2, purified pig brain tubulin (Sus scrofa, UniProt P02550+P02554).
T2 construct: using purified pig brain tubulin; from tissue; host or cells: pig brain
The experiment in a line: Turbidimetric cell-free tubulin polymerization assay. It is filed as biochemical. The following applies: 10 µM, 340 nm. The method, then:
An amount of 50 µL of Brinkley’s buffer 80 (BRB80) supplemented with 20% glycerol and 3 mM GTP was given in a black 96-well half-area plate with clear bottom. Then, test compounds 4d–f (final concentration: 5 µM, or 10 µM) or vehicle (DMSO) were added. After adding 50 µL tubulin in BRB80 (10 mg/mL) was pipetted in the wells and immediately placed in a pre-heated microplate reader (Tecan). The polymerization was determined turbidimetrically at 37 °C by measuring the absorption at 340 nm for 120 min in intervals of 5 min. Values were normally distributed for each group (Shapiro–Wilk test, p > 0.05) and there was homogeneity of variance (Levene’s test, p > 0.05).

Experiment [6] has as its system MCF-7^Topo breast adenocarcinoma cells. The experiment in a line: MTT assay, MCF-7^Topo breast carcinoma cells. The format is cell-based. The following applies: Homo sapiens, MCF7/Topo, read-out: IC50 MCF-7^Topo (72 h). Here is the method:
as §1, §2

For experiment [7], the system named is Ea.Hy926 endothelial hybrid cells. The experiment in a line: MTT assay, Ea.Hy926 endothelial hybrid cells. The format is cell-based. The following applies: Homo sapiens, EA.hy 926, read-out: IC50 Ea.Hy926 (72 h). The method, then: as §1, §2

“Also recorded” adds a separate entry of the source.

T2 sequence (P02554 whole entry): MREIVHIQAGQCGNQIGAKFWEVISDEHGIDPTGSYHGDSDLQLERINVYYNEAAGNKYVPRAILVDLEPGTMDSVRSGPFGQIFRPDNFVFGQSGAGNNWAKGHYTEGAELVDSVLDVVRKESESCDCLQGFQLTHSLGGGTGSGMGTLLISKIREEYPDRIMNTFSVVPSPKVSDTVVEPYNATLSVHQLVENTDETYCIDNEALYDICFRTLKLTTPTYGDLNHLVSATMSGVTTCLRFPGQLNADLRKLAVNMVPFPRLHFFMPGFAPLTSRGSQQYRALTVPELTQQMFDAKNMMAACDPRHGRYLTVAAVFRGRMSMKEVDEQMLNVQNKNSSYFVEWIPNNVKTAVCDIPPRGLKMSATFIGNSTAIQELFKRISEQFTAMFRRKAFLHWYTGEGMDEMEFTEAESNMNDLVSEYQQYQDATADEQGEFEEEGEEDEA
T2 sequence (P02550 whole entry): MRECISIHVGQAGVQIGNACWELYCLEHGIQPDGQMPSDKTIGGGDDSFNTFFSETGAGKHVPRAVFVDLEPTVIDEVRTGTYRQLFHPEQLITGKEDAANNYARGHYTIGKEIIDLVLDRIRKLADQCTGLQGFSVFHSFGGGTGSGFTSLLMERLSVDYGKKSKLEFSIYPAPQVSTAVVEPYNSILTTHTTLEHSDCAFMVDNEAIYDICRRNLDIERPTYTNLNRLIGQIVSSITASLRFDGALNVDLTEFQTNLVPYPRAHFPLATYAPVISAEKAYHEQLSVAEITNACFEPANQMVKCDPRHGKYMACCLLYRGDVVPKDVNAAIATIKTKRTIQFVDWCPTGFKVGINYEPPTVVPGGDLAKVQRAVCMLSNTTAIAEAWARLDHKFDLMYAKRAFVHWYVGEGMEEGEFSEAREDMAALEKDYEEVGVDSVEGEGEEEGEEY
T1 sequence (Q13547 whole entry): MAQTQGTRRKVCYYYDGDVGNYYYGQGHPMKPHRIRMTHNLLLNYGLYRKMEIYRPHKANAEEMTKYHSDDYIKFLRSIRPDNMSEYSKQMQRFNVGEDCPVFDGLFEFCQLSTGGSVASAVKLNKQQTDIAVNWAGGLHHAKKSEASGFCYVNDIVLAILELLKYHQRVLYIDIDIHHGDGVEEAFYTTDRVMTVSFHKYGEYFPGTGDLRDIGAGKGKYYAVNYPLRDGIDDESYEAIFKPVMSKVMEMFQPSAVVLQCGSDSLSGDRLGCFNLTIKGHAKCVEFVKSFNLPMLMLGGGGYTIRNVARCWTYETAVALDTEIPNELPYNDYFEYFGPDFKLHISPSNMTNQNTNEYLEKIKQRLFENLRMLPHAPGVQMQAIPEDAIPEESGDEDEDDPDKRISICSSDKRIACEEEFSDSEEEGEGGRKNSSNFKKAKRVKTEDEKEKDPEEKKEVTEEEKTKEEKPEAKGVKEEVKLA

As for `COc1ccc(-c2ocnc2-c2cc(Br)c(OC)c(OC)c2)cc1OCCCC(=O)NO` [4d, N-Hydroxy-4-[1-methoxy-4-(4’-(3’’-bromo-4’’,5’’-dimethoxyphenyl)oxazol-5’-yl)-2-phenoxy]butanamide], the IC50 (in general, the concentration needed to halve the response being measured) was determined as 130 ± 10 nM in experiment [1]; 4000 ± 100 nM in experiment [2]; 290 ± 20 nM in experiment [4]; 2800 ± 300 nM in experiment [6]; 18 ± 4 nM in experiment [7]. Besides, the “effect on microtubule cytoskeleton” value in experiment [3] (0.5 µM) was “complete disruption of the microtubule cytoskeleton”. The “inhibition of tubulin polymerization” value in experiment [5] is listed as “inhibited the polymerization of pig brain tubulin nearly completely; also recorded: significant inhibition of tubulin polymerization”.
For `COc1ccc(-c2ocnc2-c2cc(Br)c(OC)c(OC)c2)cc1OCCCCC(=O)NO` [4e, N-Hydroxy-5-[1-methoxy-4-(4’-(3’’-bromo-4’’,5’’-dimethoxyphenyl)oxazol-5’-yl)-2-phenoxy]pentanamide], the IC50 in experiment [1] was determined as 2200 ± 300 nM; in experiment [2], 3800 ± 100 nM; in experiment [4] it was 2100 ± 400 nM; in experiment [6] it was 3400 ± 200 nM; in experiment [7], 660 ± 10 nM. Moreover, the “effect on microtubule cytoskeleton” value in experiment [3] ([…]) is listed as “eroded the highly organized microtubule network, but left some intact clusters”. The “inhibition of tubulin polymerization” value in experiment [5] is “merely moderate inhibitory effect”.
Regarding `COc1ccc(-c2ocnc2-c2cc(Br)c(OC)c(OC)c2)cc1OCCCCCC(=O)NO` [4f, N-Hydroxy-6-[1-methoxy-4-(4’-(3’’-bromo-4’’,5’’-dimethoxyphenyl)oxazol-5’-yl)-2-phenoxy]hexanamide], the IC50 in experiment [1] turned out to be 6300 ± 400 nM; in experiment [2], 490 ± 50 nM; in experiment [4], 4100 ± 300 nM; in experiment [6], 8300 ± 700 nM; in experiment [7] it was 410 ± 40 nM. Besides, the “effect on microtubule cytoskeleton” value in experiment [3] (4 µM) is given as “did not affect the microtubule cytoskeleton”. Also, the “inhibition of tubulin polymerization” value in experiment [5] is “virtually none”.

Source of the values: publication PMC6359144 (International Journal of Molecular Sciences, 2019).
